Assay in all cases: Kinase panel profiling at 1 µmol/L (MSA or IMAP), percentage inhibition
Common to all, as to format: biochemical

For experiment [1], the target named is T1, panel of 255 wild-type kinases (Homo sapiens, UniProt O14757).
T1 sequence (O14757 1-476): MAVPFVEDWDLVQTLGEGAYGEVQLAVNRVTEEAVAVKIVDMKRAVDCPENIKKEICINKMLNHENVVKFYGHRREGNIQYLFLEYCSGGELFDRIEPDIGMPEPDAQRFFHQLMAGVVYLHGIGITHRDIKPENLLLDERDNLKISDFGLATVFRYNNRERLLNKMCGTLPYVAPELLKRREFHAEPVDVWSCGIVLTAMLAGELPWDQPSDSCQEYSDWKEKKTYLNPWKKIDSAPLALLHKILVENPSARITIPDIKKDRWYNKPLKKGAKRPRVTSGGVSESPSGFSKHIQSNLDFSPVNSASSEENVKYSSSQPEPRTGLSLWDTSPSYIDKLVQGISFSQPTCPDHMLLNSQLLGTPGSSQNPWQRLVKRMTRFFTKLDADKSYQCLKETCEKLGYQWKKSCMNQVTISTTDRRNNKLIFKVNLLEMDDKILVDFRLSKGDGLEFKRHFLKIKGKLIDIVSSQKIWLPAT
The conditions noted are these: CHK1 kinase assay; 1 µmol/L single concentration; read-out: %-inhibition CHK1.

Experiment [2] addresses panel of 255 wild-type kinases (Homo sapiens, UniProt P05129). The conditions noted are these: kinase PKCγ; 1 µmol/L single concentration; read-out: %-inhibition at 1 µmol/L, PKCγ.
Experiment [3] deals with panel of 255 wild-type kinases (Homo sapiens, UniProt P11309). To be noted: kinase PIM1; 1 µmol/L single concentration; read-out: %-inhibition at 1 µmol/L, PIM1.
The target in experiment [4] is T2, panel of 255 wild-type kinases (Homo sapiens, UniProt P15735).
T2 sequence (P15735 1-406): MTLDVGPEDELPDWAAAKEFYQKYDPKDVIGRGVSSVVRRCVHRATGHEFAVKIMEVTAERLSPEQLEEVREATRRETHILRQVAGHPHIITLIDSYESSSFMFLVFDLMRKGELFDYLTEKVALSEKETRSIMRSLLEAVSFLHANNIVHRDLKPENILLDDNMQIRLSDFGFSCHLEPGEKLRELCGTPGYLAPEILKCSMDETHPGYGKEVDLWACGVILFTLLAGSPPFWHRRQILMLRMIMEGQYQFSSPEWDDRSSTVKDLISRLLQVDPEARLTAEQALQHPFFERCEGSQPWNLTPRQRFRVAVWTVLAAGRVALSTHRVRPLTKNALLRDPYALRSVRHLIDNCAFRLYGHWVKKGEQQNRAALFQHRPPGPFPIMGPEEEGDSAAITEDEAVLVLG
The conditions noted are these: kinase PHKG2; 1 µmol/L single concentration; read-out: %-inhibition at 1 µmol/L, PHKG2.

Experiment [5] deals with panel of 255 wild-type kinases (Homo sapiens, UniProt P22455). To be noted: kinase FGFR4; 1 µmol/L single concentration; read-out: %-inhibition at 1 µmol/L, FGFR4.
The target of experiment [6] is panel of 255 wild-type kinases (Homo sapiens, UniProt P27361). To be noted: kinase Erk1; 1 µmol/L single concentration; read-out: %-inhibition at 1 µmol/L, Erk1.
In experiment [7] the target is panel of 255 wild-type kinases (Homo sapiens, UniProt P28482). The conditions noted are these: kinase Erk2; 1 µmol/L single concentration; read-out: %-inhibition at 1 µmol/L, Erk2.
Experiment [8] concerns the target panel of 255 wild-type kinases (Homo sapiens, UniProt P49761). The conditions noted are these: kinase CLK3; 1 µmol/L single concentration; read-out: %-inhibition at 1 µmol/L, CLK3.
The target in experiment [9] is panel of 255 wild-type kinases (Homo sapiens, UniProt P51812). The conditions noted are these: kinase RSK2; 1 µmol/L single concentration; read-out: %-inhibition at 1 µmol/L, RSK2.
Experiment [10] concerns the target panel of 255 wild-type kinases (Homo sapiens, UniProt Q16644). To be noted: MAPKAPK3; 1 µmol/L single concentration; read-out: %-inhibition, MAPKAPK3.
The target in experiment [11] is panel of 255 wild-type kinases (Homo sapiens, UniProt Q8N568). The conditions noted are these: kinase DCAMKL2; 1 µmol/L single concentration; read-out: %-inhibition at 1 µmol/L, DCAMKL2.
Experiment [12] addresses T3, panel of 255 wild-type kinases (Homo sapiens, UniProt Q92630).
T3 sequence (Q92630 1-601): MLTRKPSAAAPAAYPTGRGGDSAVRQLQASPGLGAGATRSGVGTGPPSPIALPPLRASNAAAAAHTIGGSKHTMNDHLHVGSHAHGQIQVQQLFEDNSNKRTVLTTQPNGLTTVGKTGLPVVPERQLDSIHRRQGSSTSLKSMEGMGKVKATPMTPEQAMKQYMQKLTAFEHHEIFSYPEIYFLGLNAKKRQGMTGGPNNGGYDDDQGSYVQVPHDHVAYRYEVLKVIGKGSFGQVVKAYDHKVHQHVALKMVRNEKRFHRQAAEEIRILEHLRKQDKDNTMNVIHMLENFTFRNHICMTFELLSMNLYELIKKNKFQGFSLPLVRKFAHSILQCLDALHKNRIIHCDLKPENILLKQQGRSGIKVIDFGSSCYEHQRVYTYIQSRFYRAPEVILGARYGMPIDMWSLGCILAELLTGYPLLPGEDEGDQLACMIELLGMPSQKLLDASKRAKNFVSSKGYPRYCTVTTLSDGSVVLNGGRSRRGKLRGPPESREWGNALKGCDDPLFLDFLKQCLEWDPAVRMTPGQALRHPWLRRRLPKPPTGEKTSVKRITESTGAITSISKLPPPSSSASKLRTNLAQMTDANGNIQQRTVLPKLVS
The conditions noted are these: kinase DYRK2; 1 µmol/L single concentration; read-out: %-inhibition at 1 µmol/L, DYRK2.

For experiment [13], the target named is panel of 255 wild-type kinases (Homo sapiens, UniProt Q9BYP7). To be noted: kinase WNK3; 1 µmol/L single concentration; read-out: %-inhibition at 1 µmol/L, WNK3.
Experiment [14] has as its target panel of 255 wild-type kinases (Homo sapiens, UniProt Q9H0K1). The conditions noted are these: kinase QIK; 1 µmol/L single concentration; read-out: %-inhibition at 1 µmol/L, QIK.
Experiment [15] concerns the target panel of 255 wild-type kinases (Homo sapiens, UniProt Q9P286). The conditions noted are these: PAK5; 1 µmol/L single concentration; read-out: %-inhibition, PAK5.

On to `COc1ccc(CN2C3CC2CN(c2ccc(-c4cc(OCC(C)(C)O)cn5ncc(C#N)c45)cn2)C3)cn1` [selpercatinib], for which the inhibition at 1 µM in experiment [1] is 29%; in experiment [2], -0.427%; in [3], -5.68%; in [4], 6.5%; in experiment [5], 84%; in experiment [6] it was -7.44%. In addition, the inhibition at 1 µM in experiment [7] was -4%; in experiment [8] it was 0.425%; in [9] it was 47%; in [10] it was -12%; in experiment [11], 1.22%; in [12] it was 66%. The results for the inhibition at 1 µM in experiment [13], in experiment [14] and in experiment [15] were -1.49%, -2.53% and 9%, respectively.
As for `CCN1C(=O)N(c2c(F)c(OC)cc(OC)c2F)Cc2cnc3[nH]c(CN4CCOCC4)cc3c21` [pemigatinib], the inhibition at 1 µM was 12% in [1]; -0.948% in [2]; -7% in experiment [3]; 8% in experiment [4]; 100% in experiment [5]; -8.52% in [6]. The inhibition at 1 µM in [7] is -1.6%; in experiment [8], -1%; in [9], -5%; in experiment [10] it was -12%; in experiment [11], 27%; in [12] it was 12%. In addition, the results for the inhibition at 1 µM in experiment [13], in [14] and in experiment [15] were -0.586%, 6.5% and 2.26%, respectively.
With `CO[C@]1(C(=O)N[C@@H](C)c2ccc(-n3cc(F)cn3)nc2)CC[C@H](c2nc(C)cc(Nc3cc(C)[nH]n3)n2)CC1` [pralsetinib], the inhibition at 1 µM was 11% in experiment [1]; 1.41% in experiment [2]; -1.53% in experiment [3]; 2.24% in experiment [4]; 85% in experiment [5]; -3% in [6]. Moreover, the inhibition at 1 µM in experiment [7] was 0.23%; in [8], 9%; in experiment [9] it was 23%; in experiment [10] it was -22%; in experiment [11] it was 1.65%; in [12], -0.768%. The inhibition at 1 µM is 0.505% in [13], -2.55% in [14] and 69% in experiment [15].
In the case of `C[C@H]1Oc2cc(cnc2N)-c2c(nn(C)c2C#N)CN(C)C(=O)c2ccc(F)cc21` [lorlatinib], the inhibition at 1 µM in [1] is 12%; in experiment [2] it was -3.74%; in [3] it was 8%; in experiment [4], 92%; in experiment [5] it was 20%; in experiment [6], 3%. Besides, the inhibition at 1 µM in [7] was 0.392%; in [8], 0.641%; in experiment [9], -0.881%; in [10] it was -10%; in [11], 74%; in experiment [12], 4.35%. Moreover, the inhibition at 1 µM came out at 6% in experiment [13], 2.53% in experiment [14] and 11% in experiment [15].
As for `CCn1c(=O)c(-c2cc(NC(=O)Nc3ccccc3)c(F)cc2Br)cc2cnc(NC)cc21` [ripretinib], the inhibition at 1 µM was 3.57% in [1]; 0.0973% in experiment [2]; -5% in experiment [3]; 1.5% in experiment [4]; 11% in experiment [5]; 2.79% in experiment [6]. In addition, the inhibition at 1 µM in experiment [7] is -2.43%; in experiment [8], -7%; in [9], 3.31%; in experiment [10] it was -16%; in [11], 2%; in experiment [12], 4.57%. Besides, the inhibition at 1 µM in experiment [13] is -1.09%; in experiment [14], 7%; in experiment [15] it was 1.9%.
`Cc1nc(NC(=O)N2CCC[C@H]2C(N)=O)sc1-c1ccnc(C(C)(C)C(F)(F)F)c1` [alpelisib]: the inhibition at 1 µM in experiment [1] was 11%; in experiment [2], -1.86%; in [3], 4%; in [4], 1.64%; in [5], 9%; in experiment [6], -0.813%. Moreover, the inhibition at 1 µM in experiment [7] is -0.753%; in experiment [8] it was 22%; in experiment [9], -1.78%; in experiment [10], -13%; in experiment [11], 6.52%; in experiment [12], 7%. Besides, the inhibition at 1 µM in experiment [13] was -3%; in [14], 2.48%; in experiment [15], -2.58%.
Turning to `FC(F)(F)c1ccc(CNc2ccc(Cc3c[nH]c4ncc(Cl)cc34)cn2)cn1` [pexidartinib], the inhibition at 1 µM is 5.6% in [1]; 4.68% in experiment [2]; -3.77% in experiment [3]; 4.25% in experiment [4]; 7.42% in experiment [5]; 2.66% in [6]. The inhibition at 1 µM in experiment [7] is -3.53%; in experiment [8], 18%; in [9] it was 14%; in experiment [10], -15%; in [11], 3.25%; in [12], 24%. Also, the inhibition at 1 µM in experiment [13] amounted to 0.624%; in [14], 11%; in [15] it was 7%.

For the origin of these results see publication PMC9516332 (Frontiers in Oncology, 2022).
